The record followed here is US12202843B2, “Muscarinic receptor agonists” (Nxera Pharma UK Limited, priority 2014, dated 2025).

Molecules are shown by their SMILES. Some results are limits rather than exact numbers.

Format in all cases: cell-based
Experiment [1] addresses T1, human muscarinic M4 receptor (Homo sapiens, UniProt P08173).
T1 construct: expressed in transfected cells
T1 sequence (P08173 1-479): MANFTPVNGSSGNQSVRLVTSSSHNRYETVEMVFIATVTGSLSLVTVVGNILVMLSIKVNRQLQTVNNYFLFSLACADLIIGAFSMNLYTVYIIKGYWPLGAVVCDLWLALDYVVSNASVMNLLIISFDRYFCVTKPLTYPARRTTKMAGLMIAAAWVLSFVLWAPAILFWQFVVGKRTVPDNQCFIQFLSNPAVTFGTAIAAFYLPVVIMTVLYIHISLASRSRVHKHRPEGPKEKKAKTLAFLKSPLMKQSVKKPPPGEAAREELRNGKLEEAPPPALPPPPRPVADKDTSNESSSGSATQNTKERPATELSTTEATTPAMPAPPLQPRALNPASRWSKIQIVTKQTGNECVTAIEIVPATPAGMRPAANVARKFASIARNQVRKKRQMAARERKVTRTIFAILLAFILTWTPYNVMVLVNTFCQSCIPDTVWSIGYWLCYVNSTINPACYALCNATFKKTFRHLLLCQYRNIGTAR
Put plainly: Alphascreen Surefire phospho-ERK1/2 functional assay, M4. As to conditions: for EC50: CHO cells stably expressing human M4, read-out: pEC50 M4 (converted); for % Emax cf. ACh, M4: CHO cells stably expressing human M4, relative to ACh; for Emax: CHO, read-out: % Emax cf. ACh, M4, CHO cells stably expressing human M4, relative to ACh.

Experiment [2] concerns the target T2, human muscarinic M3 receptor (Homo sapiens, UniProt P20309).
T2 construct: expressed in transfected cells
Put plainly: Alphascreen Surefire phospho-ERK1/2 functional assay, M3. As to conditions: for EC50: CHO cells stably expressing human M3, read-out: pEC50 M3 (converted); for Emax: CHO, read-out: % Emax cf. ACh, M3, CHO cells stably expressing human M3, relative to ACh; for % Emax cf. ACh, M3: CHO cells stably expressing human M3, relative to ACh. The protocol:
(§1) ERK1/2 phosphorylation is a downstream consequence of both Gq/11 and Gi/o protein coupled receptor activation, making it highly suitable for the assessment of M1, M3 (Gq/11 coupled) and M2, M4 receptors (Gi/o coupled), rather than using different assay formats for different receptor subtypes. CHO cells stably expressing the human muscarinic M1, M2, M3 or M4 receptor were plated (25K/well) onto 96-well tissue culture plates in MEM-alpha+10% dialysed FBS. Once adhered, cells were serum-starved overnight. Agonist stimulation was performed by the addition of 5 μL agonist to the cells for 5 min (37° C.). Media was removed and 50 μL of lysis buffer added. […] Plates were incubated for 2 h with gentle agitation in the dark and then read on a PHERAstar plate reader.
(§2) pEC50 and Emax figures were calculated from the resulting data for each receptor subtype.
(In general: Alpha assays give light when donor and acceptor beads are brought close together.)

In experiment [3] the target is T3, human muscarinic M2 receptor (Homo sapiens, UniProt P08172).
T3 sequence (P08172 1-466): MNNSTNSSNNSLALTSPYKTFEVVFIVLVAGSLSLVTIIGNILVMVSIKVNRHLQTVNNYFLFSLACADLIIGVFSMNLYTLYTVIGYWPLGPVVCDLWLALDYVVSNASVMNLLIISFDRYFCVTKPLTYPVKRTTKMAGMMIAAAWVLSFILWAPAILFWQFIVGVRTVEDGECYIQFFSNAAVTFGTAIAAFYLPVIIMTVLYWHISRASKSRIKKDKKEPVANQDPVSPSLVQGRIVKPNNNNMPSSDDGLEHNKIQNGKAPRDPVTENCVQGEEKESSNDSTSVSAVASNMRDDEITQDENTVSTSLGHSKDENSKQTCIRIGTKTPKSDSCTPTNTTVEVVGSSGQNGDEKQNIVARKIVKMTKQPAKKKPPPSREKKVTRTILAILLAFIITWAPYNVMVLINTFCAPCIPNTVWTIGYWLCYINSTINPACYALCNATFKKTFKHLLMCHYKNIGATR
Kind of experiment: Alphascreen Surefire phospho-ERK1/2 functional assay, M2. The settings on record: for EC50: CHO cells stably expressing human M2, read-out: pEC50 M2 (converted); for Emax: CHO, read-out: % Emax cf. ACh, M2, CHO cells stably expressing human M2, relative to ACh; for % Emax cf. ACh, M2: CHO cells stably expressing human M2, relative to ACh. The method, then: as §1, §2

Experiment [4] addresses T4, human muscarinic M1 receptor (Homo sapiens, UniProt P11229).
T4 sequence (P11229 1-460): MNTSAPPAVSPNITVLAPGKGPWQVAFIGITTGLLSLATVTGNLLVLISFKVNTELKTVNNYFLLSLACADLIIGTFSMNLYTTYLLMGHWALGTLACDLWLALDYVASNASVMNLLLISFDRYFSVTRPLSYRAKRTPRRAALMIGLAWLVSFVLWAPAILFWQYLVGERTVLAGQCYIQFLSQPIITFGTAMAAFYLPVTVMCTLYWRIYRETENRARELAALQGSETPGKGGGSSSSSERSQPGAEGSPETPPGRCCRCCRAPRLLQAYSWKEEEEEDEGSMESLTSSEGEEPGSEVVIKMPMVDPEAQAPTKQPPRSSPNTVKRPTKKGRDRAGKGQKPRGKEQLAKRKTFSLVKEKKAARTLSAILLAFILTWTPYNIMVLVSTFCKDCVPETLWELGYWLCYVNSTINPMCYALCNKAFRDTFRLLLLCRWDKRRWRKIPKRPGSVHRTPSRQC
Put plainly: Alphascreen Surefire phospho-ERK1/2 functional assay, M1. As to conditions: for EC50: CHO cells stably expressing human M1, read-out: pEC50 M1 (converted); for % Emax cf. ACh, M1: CHO cells stably expressing human M1, relative to ACh; for Emax: CHO, read-out: % Emax cf. ACh, M1, CHO cells stably expressing human M1, relative to ACh.

T2 sequence (P20309 whole entry): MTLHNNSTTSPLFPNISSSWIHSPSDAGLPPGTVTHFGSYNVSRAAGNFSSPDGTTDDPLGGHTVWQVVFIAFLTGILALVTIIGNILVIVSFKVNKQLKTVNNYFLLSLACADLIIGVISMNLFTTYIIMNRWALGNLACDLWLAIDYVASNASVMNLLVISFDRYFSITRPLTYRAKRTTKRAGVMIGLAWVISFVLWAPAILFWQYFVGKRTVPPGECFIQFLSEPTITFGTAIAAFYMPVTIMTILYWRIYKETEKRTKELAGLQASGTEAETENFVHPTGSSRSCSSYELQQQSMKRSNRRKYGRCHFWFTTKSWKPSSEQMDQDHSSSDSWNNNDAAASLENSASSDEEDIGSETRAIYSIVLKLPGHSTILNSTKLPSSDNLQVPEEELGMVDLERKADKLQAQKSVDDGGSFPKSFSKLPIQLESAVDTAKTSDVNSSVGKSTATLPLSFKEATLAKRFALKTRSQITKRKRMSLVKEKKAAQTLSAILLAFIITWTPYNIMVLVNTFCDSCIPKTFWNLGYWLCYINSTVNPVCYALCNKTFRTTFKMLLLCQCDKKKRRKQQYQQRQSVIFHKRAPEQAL

What is called Emax is the maximal effect, on the per cent scale that the assay sets. On to `CCOC(=O)N1C2CCC1C(F)C(N1CCC3(CC1)CNC(=O)C3)C2` (single isomer, unassigned) [Example 2-11 Isomer 2], for which, in experiment [1], the EC50 was 200 nM and the “% Emax cf. ACh, M4” value was found to be 55%. In experiment [2], the EC50 is above 20000 nM and the Emax worked out at 22%. For the same molecule, in experiment [3], the EC50 was above 20000 nM and the Emax stood at 18%. Moreover, in experiment [4], the EC50 was 251 nM and the “% Emax cf. ACh, M1” value was 101%.
In the case of `CCOC(=O)N1C2CCC1CC(N1CCC3(CC1)CC(=O)N(CC)C3)C2` (single isomer, unassigned) [Example 2-13 Isomer 2], the EC50 in experiment [1] is 100 nM; in experiment [2] it was above 20000 nM; in experiment [3], above 20000 nM; in experiment [4], 158 nM. The Emax in experiment [1] turned out to be 49%; in experiment [2] it was 57%; in experiment [3], 11%; in experiment [4], 76%.
In the case of `CCOC(=O)N1C2CCC1CC(N1CCC3(CC1)CNC(=O)O3)C2` (single isomer, unassigned) [Example 2-14 Isomer 2], the EC50 was 79.4 nM in experiment [1], above 20000 nM in experiment [2], above 20000 nM in experiment [3] and 39.8 nM in experiment [4]. Also, the “% Emax cf. ACh, M4” value in experiment [1] is on record as 60%. Further, the Emax in experiment [2] and in experiment [3] was 0% each time. Also, the “% Emax cf. ACh, M1” value in experiment [4] is 92%.
With `CCOC(=O)N1C2CCC1CC(N1CCC3(CC1)OC(=O)NC3CC)C2` (single isomer, unassigned) [Example 2-16 Isomer 1], the EC50 is 79.4 nM in experiment [1], above 20000 nM in experiment [2], above 20000 nM in experiment [3] and 50.1 nM in experiment [4]. Further, the “% Emax cf. ACh, M4” value in experiment [1] (listed as 2-16 Isomer 1) is 19%. The Emax was 9% in experiment [2] and 3% in experiment [3]. In addition, in experiment [4] (listed as 2-16 Isomer 1), the “% Emax cf. ACh, M1” value came out at 36%.
Take `CCOC(=O)N1C2CCC1CC(N1CCC3(CC1)OC(=O)NC3C(C)C)C2` (single isomer, unassigned) [Example 2-17 Isomer 1]: the EC50 in experiment [1] is 20 nM; in experiment [2] it was above 20000 nM; in experiment [3], above 20000 nM; in experiment [4] it was 31.6 nM. Besides, in experiment [1] (listed as 2-17 Isomer 1), the “% Emax cf. ACh, M4” value is reported as 25%. In addition, the “% Emax cf. ACh, M3” value in experiment [2] (listed as 2-17 Isomer 1) is 51%. In addition, the maximal response (Emax) in experiment [3] worked out at 2%. The “% Emax cf. ACh, M1” value in experiment [4] (listed as 2-17 Isomer 1) is 58%.
On to `CCOC(=O)N1C2CCC1CC(N1CCC3(CC1)OC(=O)NC3C(C)C)C2` (single isomer, unassigned) [Example 2-17 Isomer 2], for which the EC50 is 100 nM in experiment [1] and 200 nM in experiment [4]. In experiment [1] (listed as 2-17 Isomer 2), the “% Emax cf. ACh, M4” value is on record as 72%. Moreover, the “% Emax cf. ACh, M3” value in experiment [2] (listed as 2-17 Isomer 2) is recorded as 12%. For the same molecule, the “% Emax cf. ACh, M2” value in experiment [3] is 3%. Moreover, in experiment [4] (listed as 2-17 Isomer 2), the “% Emax cf. ACh, M1” value worked out at 117%.
As to `CCCN1CC2(CCN(C3CC4CCC(C3)N4C(=O)OCC)CC2)CC1=O` (single isomer, unassigned) [Example 2-25 Isomer 2, ethyl 3-(3-oxo-2-propyl-2,8-diazaspiro[4.5]dec-8-yl)-8-azabicyclo[3.2.1]octane-8-carboxylate], the EC50 in experiment [1] is 251 nM; in experiment [2], above 20000 nM; in experiment [3] it was above 20000 nM; in experiment [4], 251 nM. Further, the Emax is 25% in experiment [1], 12% in experiment [2], 15% in experiment [3] and 53% in experiment [4].
Regarding `[2H]C([2H])(C)OC(=O)N1C2CCC1CC(N1CCC3(CC1)CNC(=O)C3)C2` (single isomer, unassigned) [Example 2-30 Isomer 2, (1,1-^2H2)ethyl 3-(3-oxo-2,8-diazaspiro[4.5]dec-8-yl)-8-azabicyclo[3.2.1]octane-8-carboxylate], the EC50 in experiment [1] is 79.4 nM; in experiment [2], above 20000 nM; in experiment [3], above 20000 nM; in experiment [4] it was 31.6 nM. Also, in experiment [1], the “% Emax cf. ACh, M4” value amounted to 29%. The results for the Emax in experiment [2] and in experiment [3] were 16% and 9%, respectively. Also, the “% Emax cf. ACh, M1” value in experiment [4] (listed as 2-30 Isomer 2) was found to be 66%.
As to `[2H]C([2H])([2H])COC(=O)N1C2CCC1CC(N1CCC3(CC1)CNC(=O)C3)C2` (single isomer, unassigned) [Example 2-31 Isomer 2], the EC50 in experiment [1] is 25.1 nM; in experiment [2], above 20000 nM; in experiment [3], above 20000 nM; in experiment [4] it was 25.1 nM. For the same molecule, the “% Emax cf. ACh, M4” value in experiment [1] (listed as 2-31 Isomer 2) was 26%. Also, the figures for the maximal response (Emax) in experiment [2] and in experiment [3] were 8% and 11%, respectively. Also, the “% Emax cf. ACh, M1” value in experiment [4] (listed as 2-31 Isomer 2) was 76%.
As for `[2H]C([2H])([2H])C([2H])([2H])OC(=O)N1C2CCC1CC(N1CCC3(CC1)CNC(=O)C3)C2` (single isomer, unassigned) [Example 2-32 Isomer 1], the EC50 in experiment [1] was 126 nM; in experiment [2], above 20000 nM; in experiment [3], above 20000 nM; in experiment [4], 79.4 nM. For the same molecule, the Emax came to 40% in experiment [1], 16% in experiment [3] and 92% in experiment [4]. The “% Emax cf. ACh, M3” value in experiment [2] (listed as 2-32 Isomer 1) was found to be 10%.
For the molecule `[2H]C([2H])([2H])C([2H])([2H])OC(=O)N1C2CCC1CC(N1CCC3(CC1)CNC(=O)C3)C2` (single isomer, unassigned) [Example 2-32 Isomer 2], in experiment [1], the EC50 was 50.1 nM and the “% Emax cf. ACh, M4” value is on record as 48%. For the same molecule, the “% Emax cf. ACh, M3” value in experiment [2] (listed as 2-32 Isomer 2) turned out to be 1%. Further, the “% Emax cf. ACh, M2” value in experiment [3] was found to be 15%. Moreover, in experiment [4], the EC50 was 31.6 nM and the “% Emax cf. ACh, M1” value came out at 77%.
